Data published in PubChem BioAssay AID330 (DTP/NCI, 2004).
Where “and” joins values, the source holds several entries; their conditions need not be identical. Equal entries are not always repeated. Inconclusive results and toxic doses are left out.

Test system: P388 leukemia ip, CD2F1 mice, survival T/C
Assay: NCI In Vivo Anticancer Drug Screen. Data for tumor model P388 Leukemia (intraperitoneal) in CD2F1 (CDF1) mice
Details: endpoint: median survival time, higher = longer survival
Outline: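 Mice carrying the transplanted tumor received test compound or vehicle. Survival was recorded in each group, and the value is the treated-group measurement divided by that of the vehicle-treated control group.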

[1] = dose: 50.0 mg/kg/injection, schedule: Q01DX005 (ip), vehicle: Klucel (hydroxypropylcellulose) (HPC)
[2] = dose: 100.0 mg/kg/injection, schedule: Q01DX005 (ip), vehicle: Klucel (hydroxypropylcellulose) (HPC)
[3] = dose: 200.0 mg/kg/injection, schedule: Q01DX005 (ip), vehicle: Klucel (hydroxypropylcellulose) (HPC)
[4] = dose: 50.0 mg/kg/injection, schedule: Q01DX005 (ip), vehicle: saline with Tween-80
[5] = dose: 100.0 mg/kg/injection, schedule: Q01DX005 (ip), vehicle: saline with Tween-80
[6] = dose: 100.0 mg/kg/injection, schedule: Q01DX001 (ip), vehicle: saline with Tween-80
[7] = dose: 200.0 mg/kg/injection, schedule: Q01DX001 (ip), vehicle: saline with Tween-80
[8] = dose: 400.0 mg/kg/injection, schedule: Q01DX001 (ip), vehicle: saline with Tween-80
[9] = dose: 100.0 mg/kg/injection, schedule: Q04DX003 (ip), vehicle: saline with Tween-80
[10] = dose: 200.0 mg/kg/injection, schedule: Q04DX003 (ip), vehicle: saline with Tween-80
[11] = dose: 400.0 mg/kg/injection, schedule: Q04DX003 (ip), vehicle: saline with Tween-80
[12] = dose: 25.0 mg/kg/injection, schedule: Q01DX009 (ip), vehicle: Klucel (hydroxypropylcellulose) (HPC)
[13] = dose: 50.0 mg/kg/injection, schedule: Q01DX009 (ip), vehicle: saline with Tween-80
[14] = dose: 200.0 mg/kg/injection, schedule: Q01DX009 (ip), vehicle: saline with Tween-80
[15] = dose: 50.0 mg/kg/injection, schedule: Q01DX009 (ip), vehicle: Klucel (hydroxypropylcellulose) (HPC)
[16] = dose: 100.0 mg/kg/injection, schedule: Q01DX009 (ip), vehicle: Klucel (hydroxypropylcellulose) (HPC)
[17] = dose: 50.0 mg/kg/injection, schedule: Q01DX005 (ip), vehicle: saline
[18] = dose: 100.0 mg/kg/injection, schedule: Q01DX005 (ip), vehicle: saline
[19] = dose: 200.0 mg/kg/injection, schedule: Q01DX005 (ip), vehicle: saline

SMILES: COC1C(O[C@@H]2c3c(cc4c(c3O)C(=O)c3c(O)cccc3C4=O)C(=O)C(C)(O)C2OC)OC(C)C(O)C1O (some centres undefined)
- T/C (dose: 6.25 mg/kg/injection, schedule: Q04DX003 (ip), vehicle: Klucel (hydroxypropylcellulose) (HPC)): 102 % of control
- T/C (dose: 12.5 mg/kg/injection, schedule: Q04DX003 (ip), vehicle: Klucel (hydroxypropylcellulose) (HPC)): 101 % of control
- T/C (dose: 25.0 mg/kg/injection, schedule: Q04DX003 (ip), vehicle: Klucel (hydroxypropylcellulose) (HPC)): 106 % of control
- T/C (dose: 50.0 mg/kg/injection, schedule: Q04DX003 (ip), vehicle: Klucel (hydroxypropylcellulose) (HPC)): 101 % of control and 104 % of control
- T/C (dose: 100.0 mg/kg/injection, schedule: Q04DX003 (ip), vehicle: Klucel (hydroxypropylcellulose) (HPC)): 104 % of control
- T/C (dose: 200.0 mg/kg/injection, schedule: Q04DX003 (ip), vehicle: Klucel (hydroxypropylcellulose) (HPC)): 121 % of control

SMILES: CCC(C)c1cc(/C=C2/OC(=O)c3ccccc32)cc(C(C)CC)c1O (centres undefined)
- T/C (dose: 100.0 mg/kg/injection, schedule: Q04DX002 (ip), vehicle: saline): 100 % of control
- T/C (dose: 200.0 mg/kg/injection, schedule: Q04DX002 (ip), vehicle: saline): 99 % of control
- T/C (dose: 400.0 mg/kg/injection, schedule: Q04DX002 (ip), vehicle: saline): 93 % of control

SMILES: CN(C)C1=CC(=S)NC(c2ccccc2)C1 (centres undefined)
- T/C [1]: 103 % of control
- T/C [2]: 100 % of control
- T/C [3]: 105 % of control

SMILES: COc1ccc(CSc2nn(CCC#N)c(=O)[nH]c2=O)cc1
- T/C [4]: 95 % of control
- T/C [5]: 97 % of control
- T/C (dose: 200.0 mg/kg/injection, schedule: Q01DX005 (ip), vehicle: saline with Tween-80): 94 % of control

SMILES: CC(=O)OC1COC(Nc2cc(=O)n(C)c(=O)[nH]2)C(OC(C)=O)C1OC(C)=O (centres undefined)
- T/C [6]: 101 % of control
- T/C [7]: 100 % of control
- T/C [8]: 95 % of control

SMILES: CN(C)c1nc(NC=O)nc(N(C)C)n1
- T/C (dose: 50.0 mg/kg/injection, schedule: Q04DX002 (ip), vehicle: saline with Tween-80): 99 % of control
- T/C (dose: 100.0 mg/kg/injection, schedule: Q04DX002 (ip), vehicle: saline with Tween-80): 99 % of control
- T/C (dose: 200.0 mg/kg/injection, schedule: Q04DX002 (ip), vehicle: saline with Tween-80): 100 % of control

SMILES: CCOC(=O)C(Cc1c[nH]c2ccccc12)(NC(C)=O)C(=O)OCC
- T/C [9]: 100 % of control
- T/C [10]: 100 % of control
- T/C [11]: 100 % of control

SMILES: CC1(C)CCCC2(C)C1CCC1(C)OC3=CC(=O)C(O)=CC3=CC12 (centres undefined)
- T/C (dose: 6.25 mg/kg/injection, schedule: Q01DX009 (ip), vehicle: Klucel (hydroxypropylcellulose) (HPC)): 100 % of control
- T/C (dose: 12.5 mg/kg/injection, schedule: Q01DX009 (ip), vehicle: Klucel (hydroxypropylcellulose) (HPC)): 112 % of control
- T/C [12]: 119 % of control

SMILES: COC(=S)NC(=O)c1ccc(F)cc1
- T/C [13]: 103 % of control
- T/C (dose: 100.0 mg/kg/injection, schedule: Q01DX009 (ip), vehicle: saline with Tween-80): 112 % of control
- T/C [14]: 117 % of control
- T/C (dose: 400.0 mg/kg/injection, schedule: Q01DX009 (ip), vehicle: saline with Tween-80): 110 % of control

SMILES: COc1c(C(C)C)cc2c(c1OC)C13CCCC(C)(C)C1C(OC3=O)C2NC(=O)CN1CCN(CCO)CC1 (centres undefined)
- T/C [12]: 106 % of control
- T/C [15]: 97 % of control
- T/C [16]: 88 % of control

SMILES: COc1ccc([I+]c2ccc(OC)cc2)cc1
- T/C (dose: 3.0 mg/kg/injection, schedule: Q01DX009 (ip), vehicle: saline with Tween-80): 104 % of control
- T/C (dose: 6.0 mg/kg/injection, schedule: Q01DX009 (ip), vehicle: saline with Tween-80): 120 % of control

SMILES: O=C1C=C(Nc2ncccn2)c2ccccc2C1=O
- T/C (dose: 6.25 mg/kg/injection, schedule: Q01DX005 (ip), vehicle: Klucel + Tween-80): 115 % of control
- T/C (dose: 12.5 mg/kg/injection, schedule: Q01DX005 (ip), vehicle: Klucel + Tween-80): 98 % of control
- T/C (dose: 25.0 mg/kg/injection, schedule: Q01DX005 (ip), vehicle: Klucel + Tween-80): 104 % of control

SMILES: CN(CC(=O)C(O)C(O)C(O)CO)c1ccccc1 (centres undefined)
- T/C [17]: 99 % of control
- T/C [18]: 100 % of control
- T/C [19]: 100 % of control

SMILES: C/C(=N\N=c1\sc2ccccc2n1CC(=O)O)c1ccc(C)cc1
- T/C [6]: 102 % of control
- T/C [7]: 106 % of control
- T/C [8]: 101 % of control

SMILES: S=P(N1CC1)(N1CC1)N1CC1.[Cl-].[Cl-].[NH2-].[NH2-].[Pt+4]
- T/C (dose: 0.78 mg/kg/injection, schedule: Q01DX009 (ip), vehicle: saline): 104 % of control
- T/C (dose: 1.56 mg/kg/injection, schedule: Q01DX009 (ip), vehicle: saline): 113 % of control and 101 % of control
- T/C (dose: 6.25 mg/kg/injection, schedule: Q01DX009 (ip), vehicle: saline): 178 % of control and 150 % of control and 166 % of control
- T/C (dose: 25.0 mg/kg/injection, schedule: Q01DX009 (ip), vehicle: saline): 88 % of control

SMILES: O=C1CN(/N=C/c2ccc(-c3ccc(F)cc3)o2)C(=O)N1
- T/C (dose: 50.0 mg/kg/injection, schedule: Q01DX001 (ip), vehicle: saline with Tween-80): 103 % of control
- T/C [6]: 100 % of control
- T/C [7]: 100 % of control
- T/C [8]: 100 % of control

SMILES: CN(C)C1CC2CCCCC2CC1OC(=O)c1ccc([N+](=O)[O-])cc1 (centres undefined)
- T/C [9]: 101 % of control
- T/C [10]: 110 % of control
- T/C [11]: 101 % of control

SMILES: O=S1(=O)c2ccccc2N(c2ccccc2)c2nnc(COc3ccccc3)n21
- T/C [4]: 90 % of control
- T/C [5]: 88 % of control

SMILES: CCN(CC)CCC(O)(c1ccc2c(c1)OCO2)c1cc(OC)c(OC)c(OC)c1 (centres undefined)
- T/C [1]: 103 % of control and 93 % of control and 94 % of control
- T/C [3]: 101 % of control

SMILES: COc1cc([N+](=O)[O-])c(OC)cc1Nc1ccccc1C(=O)O
- T/C (dose: 60.0 mg/kg/injection, schedule: Q01DX005 (ip), vehicle: Klucel + Tween-80): 89 % of control
- T/C (dose: 120.0 mg/kg/injection, schedule: Q01DX005 (ip), vehicle: Klucel + Tween-80): 90 % of control

SMILES: COc1ccc(Cc2nnc(C)c3c(C)[nH]nc23)cc1OC
- T/C [15]: 92 % of control
- T/C [16]: 92 % of control

SMILES: Cn1c(=O)n2n(c1=O)C1CCC2CC1
- T/C [17]: 98 % of control
- T/C [18]: 102 % of control
- T/C [19]: 100 % of control

SMILES: CC(C)NC(=O)OCc1c(COC(=O)NC(C)C)c(-c2ccc(Cl)c(Cl)c2)n2c1C[C@@H](O)C2
- T/C (dose: 2.5 mg/kg/injection, schedule: Q01DX005 (ip), vehicle: Klucel (hydroxypropylcellulose) (HPC)): 120 % of control
- T/C (dose: 5.0 mg/kg/injection, schedule: Q01DX005 (ip), vehicle: Klucel (hydroxypropylcellulose) (HPC)): 120 % of control
- T/C [1]: 150 % of control
- T/C [2]: 166 % of control

SMILES: CS/C(=N/N=C(\C)c1ccccn1)[Se][Se]/C(=N/N=C(\C)c1ccccn1)SC
- T/C (dose: 6.25 mg/kg/injection, schedule: Q01DX009 (ip), vehicle: saline with Tween-80): 90 % of control
- T/C (dose: 12.5 mg/kg/injection, schedule: Q01DX009 (ip), vehicle: saline with Tween-80): 97 % of control
- T/C [13]: 93 % of control
- T/C [14]: 93 % of control

SMILES: CCOC(=O)Nc1nc2ccccc2n1CN1CCCCC1
- T/C (dose: 25.0 mg/kg/injection, schedule: Q01DX005 (ip), vehicle: Klucel (hydroxypropylcellulose) (HPC)): 97 % of control
- T/C [1]: 100 % of control
- T/C [2]: 106 % of control
- T/C [3]: 115 % of control
